Source: patent US12565687B2, “Glucose in solid form and process for manufacturing glucose in solid form” (CARGILL, INCORPORATED, priority 2021, dated 2026)

Assay: Dissolution speed test in distilled water
Type: physicochemical
Conditions: 1.5 g solid, particle sizes 425-600 μm, stirred in distilled water at ambient temperature
Procedure: Dissolution speed tests of the produced semi-crystalline particles were performed by comparison with the dissolution speed of pure crystalline glucose i.e. glucose monohydrate. Two comparative runs were carried out by using an initial mass of 1.5 g of solid inventive semi-crystalline glucose particles vs. crystalline glucose monohydrate, both having particle sizes in the range of 425-600 μm. The solid was stirred in a cylindrical vessel with distilled water at ambient temperature. In both the runs the solid disappearance was detected after 25 s, showing an equal dissolution speed of the produced semi-crystalline glucose in comparison to the crystalline glucose monohydrate.

## O.O=C[C@H](O)[C@@H](O)[C@H](O)[C@H](O)CO [crystalline glucose monohydrate, glucose monohydrate]
  time until solid disappearance was detected (dissolution speed): 25 s
